Data: patent publication US20120004304A1, “BILE SALT ADJUVANT FOR ANIMALS FOR IMPROVING FAT UTILIZATION EFFICIENCY IN THE BODIES OF ANIMALS, AND ANIMAL FEED COMPRISING SAME” (KIMIN INC., priority 2009, published 2012)

Legend:
[1] = Fat emulsifying capacity test; format: physicochemical; conditions: 75% water, 24.3% fat, 0.7% emulsifier (3% of fat), stirred
Procedure: In order to confirm emulsifying capacity of sodiumstearoyl-2-lactylate(hereinafter, referred to as “SSL”) of the present invention, 75% water, 24.3% fat and 0.7% SSL (3% of the amount of fat used) were added and stirred. POE (20)-glyceride, mono-glyceride and lecithin were used as comparative examples.

[2] = Fat digestion percentage and ME with SSL in animal feed; format: in vivo; conditions: 0.05% by weight of SSL in animal feed
Source text: The use of SSL enables improvement in digestion and absorption efficiency of fats, growth promotion, improvement of qualities, and an increase in production yield. From the results of preferred experimental examples, it can be seen that, when 0.05% by weight of SSL is used, fat digestion percentage is increased to about 5 to 10% and ME is increased to about 100 kcal/kg.

[3] = Measurement of serum biochemical index; design: species or system ICR rats; conditions: rat, in vivo
Procedure: Feed for animal tests purchased from Shin Chon Feed Co., Ltd, were prepared and various additives were added thereto to obtain a molded animal feed with a predetermined size.
4-week old male ICR rats with a weight of […] were obtained from the laboratory animal center of Seoul National University, were divided into five groups (n=12) and maintained at a temperature of 23±2° C. and a variety of specific animal feeds were administered thereto. At this time, animals of each group were treated with the following chemicals: (percentage (%) means % by weight) • Control Group: animal feed+soybean oil 5% • Experimental Group: animal feed+soybean oil 5%+SSL 0.1% (HLB 20) • Comparative Example 1: animal feed+soybean oil 5%+lecithin 0.1% (HLB 4) • Comparative Example 2: animal feed+soybean oil 5%+glycerin monocaprate 0.1% (HLB 7) • Comparative Example 3: animal feed+soybean oil 5%+POE (20) sorbitan monolaurate 0.1% (HLB 16)
At 15 hours after the final weight of the test animals was measured (25 days), blood was collected from supraorbital […] blood vessel plexus of the rats using a capillary tube, serum was separated, and the following biochemical indexes were measured using a kit. […]

| emulsifying capacity (appearance after stirring) [1] | Compound | ME increase [2] | serum GPT and GOT versus control [3] |
| --- | --- | --- | --- |
| layer separation | POE (20)-glyceride |  |  |
| no emulsification | mono-glyceride |  |  |

| Compound | emulsifying capacity (appearance after stirring) [1] | ME increase [2] | serum GPT and GOT versus control [3] |
| --- | --- | --- | --- |
| CCCCCCCCCCCCCCCCCC(=O)OC(C)C(=O)OC(C)C(=O)[O-].[Na+] (centres unmarked) [SSL, sodium stearoyl-2-lactylate] | homogeneous dispersion | about 100 kcal/kg | considerable improvement in serum GPT and GOT |
